Results on eight molecules are retold here after patent publication US20170307590A1, “INHIBITORS OF MALARIAL AND HUMAN GLUCOSE TRANSPORTERS AND METHODS FOR IDENTIFYING THE INHIBITORS” (Washington University in St. Louis, priority 2016, published 2017).

Read-outs that look alike come from different tables or passages of the source.

Experiment [1] addresses T1, PfHT (Plasmodium falciparum, UniProt O97467).
T1 construct: endogenous in cells; host or cells: P. falciparum 3D7 parasites freed from human erythrocytes
T1 sequence (O97467 1-504): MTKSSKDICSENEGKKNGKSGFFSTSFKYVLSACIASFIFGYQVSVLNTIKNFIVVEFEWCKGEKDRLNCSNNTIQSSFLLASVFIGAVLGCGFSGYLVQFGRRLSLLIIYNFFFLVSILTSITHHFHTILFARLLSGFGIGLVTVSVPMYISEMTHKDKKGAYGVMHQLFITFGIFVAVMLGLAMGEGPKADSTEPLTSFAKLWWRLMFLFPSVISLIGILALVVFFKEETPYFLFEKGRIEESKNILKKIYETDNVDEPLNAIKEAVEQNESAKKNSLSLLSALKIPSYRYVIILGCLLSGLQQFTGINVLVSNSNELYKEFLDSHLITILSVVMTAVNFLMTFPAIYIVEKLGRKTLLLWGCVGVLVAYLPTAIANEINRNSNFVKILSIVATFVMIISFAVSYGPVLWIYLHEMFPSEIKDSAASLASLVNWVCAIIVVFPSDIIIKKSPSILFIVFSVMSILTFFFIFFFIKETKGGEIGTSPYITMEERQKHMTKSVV
Description: Uptake of [14C]-2-DOG into isolated (freed) P. falciparum parasites. The class given is cell-based. Here is the method: P. falciparum strain 3D7 was cultured in 100 mm tissue culture dishes (Techno Plastic Products, Trasadingen Switzerland) in a 2% suspension of human erythrocytes and RPMI 1640 medium until reaching >5% parasitemia. Cells were pelleted via centrifugation and resuspended in RPMI. To determine the uptake of radiolabeled glucose into the parasite, it was isolated from the erythrocyte while removing uninfected erythrocytes. Uptake of [^14C]-2-DOG into isolated parasites was determined at RT using the methods described previously(19). Test compounds were added 5 min prior to the addition of [^14C]-2-DOG (0.2 μCi/ml final concentration). Uptake was quenched after 2 min Data were fit by nonlinear regression analysis using GraphPad Prism software. Uptake of [^3H]-2-DOG into HEK293-FLIP cell lines was measured in HEPES-buffered saline at RT for 4 min Data were fit by nonlinear regression analysis using GraphPad Prism software.

Experiment [2] has as its target T1, PfHT. Particulars: cited from earlier work.
Experiment [3] relates to P. falciparum strain 3D7. Description: P. falciparum growth inhibition assay (PicoGreen DNA content). The class given is cell-based. The conditions noted are these: Plasmodium falciparum; for EC50: intraerythrocytic forms, strain 3D7. As for the experimental part:
P. falciparum strain 3D7 was obtained from the Malaria Research and Reference Reagent Resource Center (MR4). P. falciparum parasites were cultured in a 2% suspension of human erythrocytes and RPMI 1640 (Sigma Aldrich) medium supplemented with 27 mM sodium bicarbonate, 11 mM glucose, 5 mM HEPES, 1 mM sodium pyruvate, 0.37 mM hypoxanthine, 0.01 mM thymidine, 10 μg/ml gentamicin, and 0.5% Albumax (Gibco, Waltham, Mass.) at 37° C., 5% O2/5% CO2/90% N2 atmosphere.
Asynchronous P. falciparum cultures were diluted to 1% parasitemia and were treated with compounds at concentrations ranging from 9.8 nM-20 μM. Growth inhibition assays were performed in 100 μl cultures in opaque 96-well plates. Parasite growth was quantified after 3 days by measuring DNA content using PicoGreen (Life Technologies). Fluorescence was measured by a FLUOstar Omega microplate reader (BMG Labtech, Cary, N.C.) at 485 nm excitation and 528 nm emission. IC50 values were calculated by nonlinear regression analysis using GraphPad Prism software.

Experiment [4] concerns the target T1, PfHT. The experiment is described as follows: Heterologous FRET glucose sensor screening assay in PfHT-FLIP HEK293 cells. The class given is cell-based. Particulars: for inhibition at 10 µM: HEK293, FRET ratio, vehicle 100%, 200 μM CB 0%. The text has this: HEK293 cells were transfected with pcDNA3.1 FLII12Pglu-700uDelta6 (Addgene, Cambridge, Mass.), containing the FRET glucose sensor (HEK293-FLIP) using Optifect Reagent (Life Technologies, Waltham, Mass.) according to manufacturer's specifications. Cells that stably integrated the gene were selected using G418 (Sigma Aldrich, St. Louis, Mo.) and highest expressers were identified using Fluorescence Activated Cell Sorting (FACS). These cells were then stably transfected with PfHT, human GLUT1 (hGLUT1), human GLUT2 (hGLUT2), human GLUT3 (hGLUT3) or human GLUT4 (hGLUT4) DNA in the pcDNA 3.1(−) hygro plasmid (Life Technologies). Single clones were selected by comparing their ability to transport radiolabeled glucose. In all cell lines except for HEK293 overexpressing hGLUT1 cells, native hGLUT1 was knocked down using shRNA.
96-well plates were pretreated with 25 μg/ml Polyethylenimine (PEI, 750 kDa, Sigma Aldrich) solution containing 150 mM NaCl to maintain cell adhesion during washing steps. After 20 min incubation at room temperature (RT), PEI was aspirated and wells were air dried for 5 min. PfHT-FLIP cells were plated 48 h prior to the assay in black opaque 96-well plates (Greiner Bio-One, Monroe, N.C.), which were previously treated with PEI, at 30,000 cells/well. After cell plating, plates were then left in the sterile hood at RT for 45 min before transfer to the incubator to reduce edge effects. Compound screening was performed using the integrated and automated screening system (Beckman Coulter, Brea, Calif.) at the Washington University High Throughput Screening Core. SAMI EX software (Beckman Coulter) was used to design and execute the screening protocol. The Malaria Box (Medicines for Malaria Venture, Geneva, Switzerland) compound library was prediluted in glucose-free HEPES buffered saline solution (HBSS) (146 mM NaCl, 4.7 mM KCl, 0.6 mM MgSO4, 1.6 mM NaHCO3, 0.13 mM NaH2PO4, 2.5 mM CaCl2, 20 mM HEPES, pH 7.3) using the BiomekFX liquid handler (Beckman Coulter). A 1:100 dilution of 1 mM stock solution was prepared for 10 μM final concentration.
To initiate the screening assay, cells were washed twice with 150 μl HBSS per well using the ELx405 Plate Washer (Biotek, Winooski, Vt.). Cells were starved in HBSS for 30 min at RT, followed by aspiration of the HBSS from cell plates using the ELx405 Plate Washer. Cells were treated with 45 μl of diluted compound using the BiomekFX (with 3 replicate cell plates for each library plate) and incubated for 6 min at RT. To initiate the uptake, 5 μl of 100 mM glucose was added to the wells (final concentration 10 mM) using a Multidrop384 dispenser (Thermo Fisher Scientific, Waltham, Mass.). After incubation at RT for 120 min, fluorescence was measured using the 2102 EnVision Multilabel Plate Reader (Perkin Elmer, Waltham, Mass.) at excitation 436 nm (CFP) and emissions 485 nm (CFP) and 535 nm (YFP).
The Malaria Box was screened at 10 μM drug concentrations in triplicate and selected hits that decreased the FRET ratio by more than 30% with vehicle-treated cells set to 100% and cells treated with 200 μM CB set to 0%. Since fluorescent compounds have the potential to generate false positive hits, the FRET ratio of compounds without cells present was determined. After false positive elimination, 5 compounds were identified as primary hits. Hit confirmation was ascertained by determining the IC50 for glucose uptake into isolated P. falciparum parasites from blood culture using radiolabeled D-glucose. […] Compound MMV020548 was included for comparison as it was previously identified from the same library. The similar IC50 observed in the freed parasite glucose uptake assay and in vitro growth inhibition assay for MMV009085, was consistent with the interpretation that this compound is acting through PfHT blockage to inhibit parasite growth (Table 3) although, alternative targets in the parasite might be inhibited as well.

Experiment [5] deals with P. falciparum. Particulars: values provided with the malaria box; read-out: EC50 for P. falciparum growth inhibition Malaria box; cited from earlier work.
For experiment [6], the system named is parasites. The conditions noted are these: cited from earlier work.
The subject of experiment [7] is human insulin-responsive glucose transporter GLUT4. The conditions noted are these: cited from earlier work.
Experiment [8] deals with hGLUTs 1-4. The experiment is described as follows: Uptake of [3H]-2-DOG by HEK293 cells overexpressing PfHT or hGLUTs 1-4. The class given is cell-based, human.
Description: To establish selectivity of these hits for PfHT over human orthologues, the inhibition of GLUTs 1, 2, 3 and 4 was cross-validated by the confirmed hits. […] The inhibitory effect of the five confirmed hits was determined on all four human class I GLUTs at the IC50 concentration for PfHT-mediated glucose uptake inhibition.
Experiment [9] concerns the target T1, PfHT. Description: Glucose uptake into PfHT overexpressing L. mexicana parasites (Ortiz et al.). The class given is cell-based.
The mark [10] stands for this setting: IC50 PfHT in parasites, Table 1.
Setting [11] is: IC50 for glucose uptake in freed parasites, from dose-response curves of FIG. 4.
The mark [12] stands for this setting: PfHT overexpressing L. mexicana, read-out: IC50 PfHT (determined by Ortiz et al. (15) in L. mexicana).
The mark [13] stands for this setting: 72 h, P. falciparum strain 3D7, growth after 3 days, read-out: IC50 3D7 in vitro.

Take `CC(C)(C)C(=O)Nc1ccc(C(=O)Nc2cccc(-c3nc4ccccc4[nH]3)c2)cc1` [MMV665879]: the IC50 in experiment [1] (setting [10]) was 6600 nM; in experiment [1] (setting [11]), 8300 nM; in [2] (setting [12]), 2700 nM; in experiment [3] (setting [13]) it was 390 nM. Besides, the “glucose uptake versus proline transport in PfHT-overexpressing Leishmania mexicana” value (“glucose uptake versus proline transport” below) in experiment [2] is listed as “selectively inhibit glucose uptake, but not proline transport”. This molecule returned an EC50 in [3] of 390 nM. Also, the inhibition at 10 µM in experiment [4] is 49%.

With `Cc1ccc2nc(C)cc(Nc3cccc(C(F)(F)F)c3)c2c1` [MMV000326], the IC50 in experiment [1] (setting [10]) stood at 139000 nM; in experiment [1] (setting [11]), 286000 nM; in experiment [3] (setting [13]), 344 nM. The values for the EC50 in [3] and in experiment [5] were 344 nM and 1170 nM, respectively. In addition, the inhibition at 10 µM in experiment [4] was 49%.

As to `COc1cc(C(=O)Nc2ccc(-c3nc4ccccc4[nH]3)cc2)cc(OC)c1OC` [MMV665898], the figures for the IC50 in [1] (setting [10]), in experiment [1] (setting [11]) and in [3] (setting [13]) were 6200 nM, 5300 nM and 487 nM, respectively. For the same molecule, the figures for the EC50 in [3] and in [5] were 487 nM and 1220 nM, respectively. For the same molecule, the inhibition at 10 µM in experiment [4] is 64%.

Turning to `Cc1cccc(C)c1OCC(=O)N[C@@H](Cc1ccccc1)[C@@H](O)C[C@H](Cc1ccccc1)NC(=O)[C@H](C(C)C)N1CCCNC1=O` [lopinavir], the IC50 in [6] was 16000 nM. The “selectivity GLUT4 over PfHT” value in [7] is on record as “higher selectivity for the human insulin-responsive glucose transporter GLUT4 over PfHT”. The “FRET ratio with addition of D-glucose” value in [4] (PfHT-FLIP cells, FIG. 2a) was “decreased FRET ratio”.

With `C=C1[C@@H](C)[C@H]2[C@H](Cc3ccccc3)NC(=O)[C@]23OC(=O)/C=C/[C@H](O)CCC[C@@H](C)C/C=C/[C@H]3[C@@H]1O` [CB, cytochalasin B, reference compound], in experiment [4] (50 μM, PfHT-FLIP cells), the “maximal decrease in FRET ratio” value was determined as 75%. In addition, in experiment [4] (200 μM, PfHT-FLIP cells), the “inhibition of D-glucose uptake” value was “complete inhibition”.

For `CN(C)c1ccc(C(O)(c2ccc(N(C)C)cc2)c2ccc(N(C)C)cc2)cc1` [MMV665941], the “inhibition of glucose uptake at the highest concentration tested” value in [1] (FIG. 4) is “only partial inhibition”. The IC50 in [1] (setting [10]) was found to be 13300 nM; in experiment [1] (setting [11]), 19600 nM; in experiment [3] (setting [13]) it was 26 nM. Besides, the EC50 in [3] is 26 nM; in experiment [5] it was 255 nM. Moreover, the inhibition at 10 µM in experiment [4] came to 31%.

`CCN1CCN(Cc2ccc(NC(=O)c3cc4ccc5cccnc5c4[nH]3)cc2)CC1` [MMV020548]: the IC50 in experiment [1] (setting [10]) was 21300 nM; in experiment [1] (setting [11]), 15500 nM; in experiment [2] (setting [12]) it was 3500 nM; in experiment [3] (setting [13]), 114 nM. In [2], the “glucose uptake versus proline transport” value is on record as “selectively inhibit glucose uptake, but not proline transport”. In addition, the EC50 in [3] was 114 nM; in experiment [5], 361 nM. Further, in experiment [4], the inhibition at 10 µM turned out to be 21%.

Regarding `O=C1c2ccc3c4c(ccc(c24)C(=O)N1CCCCO)C(=O)N(CCCCO)C3=O` [MMV009085], the IC50 in experiment [1] (setting [10]) is 1800 nM; in experiment [1] (IC50 for PfHT-mediated glucose uptake) it was 2600 nM; in [2] (read-out: IC50 L. mexicana PfHT overexpression assay), 51 nM; in experiment [3] (3D7, read-out: IC50 malaria parasite growth assay), 990 nM; in experiment [3] (setting [13]), 987 nM. Also, in experiment [2], the “glucose uptake versus proline transport” value is on record as “selectively inhibit glucose uptake, but not proline transport”. In addition, the EC50 in experiment [3] is 987 nM; in experiment [5] it was 795 nM. The “selectivity for PfHT over human orthologues (IC50s for glucose uptake inhibition)” value in experiment [8] was “more than 10 fold”. For the same molecule, the inhibition at 10 µM in experiment [4] was determined as 87%. For the same molecule, the “difference in potency by the two assays (parasite growth vs L. mexicana PfHT overexpression)” value in [9] is given as 20 fold.

By IC50 is commonly meant the concentration needed to halve the response being measured. Usually EC50 stands for the concentration that produces a half-maximal response. Usually inhibition stands for the percentage by which the read-out fell short of the control.
